Here are results for 85 sequences from the OligoGym collection.

These antisense oligonucleotides have a phosphorothioate backbone; sugars and methylation of C are not fully specified.
Also: test concentration or dose not given here.

One data set addresses GNA11. The following applies: ASO.
Regarding TTGGCCTTGTTCTGCTCG, the remaining target (mRNA or protein) (fraction of control) is ≥ 1.

As to CGTCTCCATGGCCCGGAT, the remaining target (mRNA or protein) (fraction of control) turned out to be 0.51.

As to GGTGGTGGGCACGCGGAC, the remaining target (mRNA or protein) (fraction of control) was ≥ 1.

In the case of GGTTCAGGTCCACGAACA, the remaining target (mRNA or protein) (fraction of control) worked out at 0.29.

Take ACGTGCTCTTCCCGCTCT: the remaining target (mRNA or protein) (fraction of control) is 0.72.

Take GGTCCGGAACAGGGCTTT: the remaining target (mRNA or protein) (fraction of control) was determined as 0.74.

As to CTTCACCTCATCGCTCAG, the remaining target (mRNA or protein) (fraction of control) came out at 0.8.

In turn, CCCGCCGCAGCTGCTTCT displayed a remaining target (mRNA or protein) (fraction of control) of 0.42.

As for TACTTGGCAGAGTCGGAG, the remaining target (mRNA or protein) (fraction of control) was 0.66.

On to GTGGCGATGCGGTCAACG, for which the remaining target (mRNA or protein) (fraction of control) was 0.99.

With TGTCCTCCTCCGAGTAGC, the remaining target (mRNA or protein) (fraction of control) was ≥ 1.

GCCATGATGGACTCCAGA showed a remaining target (mRNA or protein) (fraction of control) of 0.25.

Turning to CGCCTGCGGTCGTAGCAT, the remaining target (mRNA or protein) (fraction of control) is ≥ 1.

As to GGAGGAGTTCTGGAACCA, the remaining target (mRNA or protein) (fraction of control) is 0.36.

Take ATGTTCTCCGTGTCGGTG: the remaining target (mRNA or protein) (fraction of control) is ≥ 1.

Turning to ATCCGGAAGATGATGTTC, the remaining target (mRNA or protein) (fraction of control) was ≥ 1.

As to CTTGAGCTCGCGCCGGGC, the remaining target (mRNA or protein) (fraction of control) is 0.69.

GTAGATGATCTTGTCGCT: the remaining target (mRNA or protein) (fraction of control) is ≥ 1.

CTCCACGTCCACCTCCCG displayed a remaining target (mRNA or protein) (fraction of control) of 0.31.

ATCCGGTTCTCGTTGTCC registered a remaining target (mRNA or protein) (fraction of control) of 0.78.

On to GACTCCTTCACCTCATCG, for which the remaining target (mRNA or protein) (fraction of control) was 0.85.

On to ATGATGGATGTCACGTTC, for which the remaining target (mRNA or protein) (fraction of control) was ≥ 1.

The sequence GGTCAACGTCGGTCAGGT came in with a remaining target (mRNA or protein) (fraction of control) of 0.82.

As to ACCAGATTGTACTCCTTC, the remaining target (mRNA or protein) (fraction of control) was ≥ 1.

GCCTTGTTCTGCTCGTAC registered a remaining target (mRNA or protein) (fraction of control) of 0.75.

Consider CACGCCATGATGGACTCC, for which the remaining target (mRNA or protein) (fraction of control) is ≥ 1.

AGGGCTTTGCTCTCCTCC came in with a remaining target (mRNA or protein) (fraction of control) of 0.23.

For the sequence AAGTAGTCCACCAGGTGC, the remaining target (mRNA or protein) (fraction of control) is ≥ 1.

CTTGATGGCACTGACGTA returned a remaining target (mRNA or protein) (fraction of control) of 0.22.

Consider CAGGAGCGCATTGGCCTT, for which the remaining target (mRNA or protein) (fraction of control) was ≥ 1.

GTCAGGTAGTACTTGGCA: the remaining target (mRNA or protein) (fraction of control) stood at 0.24.

TCCTGGATGCCCGGGTCC had a remaining target (mRNA or protein) (fraction of control) of 0.7.

As to TAGACGAGCTTGGTGAAG, the remaining target (mRNA or protein) (fraction of control) was ≥ 1.

In turn, ACGGCCGCGAACACGAAG came in with a remaining target (mRNA or protein) (fraction of control) of 0.94.

As for AAGCCGCGCTTGTCCTCC, the remaining target (mRNA or protein) (fraction of control) is 0.44.

For TGCTCGTACTTGTAGAGG, the remaining target (mRNA or protein) (fraction of control) is 0.93.

Sequence CGTCCTGCTGGGTGGGCA gave a remaining target (mRNA or protein) (fraction of control) of 0.6.

As to TGGCGGTGAAGATGTTCT, the remaining target (mRNA or protein) (fraction of control) was ≥ 1.

Consider GGTCACCTTCTCCACGTC, for which the remaining target (mRNA or protein) (fraction of control) worked out at 0.73.

On to GCTGAGGGCGACGAGAAA, for which the remaining target (mRNA or protein) (fraction of control) stood at 0.25.

Sequence TCAGGTTCAGCTGCAGGA came in with a remaining target (mRNA or protein) (fraction of control) of 0.97.

For the sequence GATGCTCGAAGGTGGTCA, the remaining target (mRNA or protein) (fraction of control) is 0.67.

As to GCTGGTACTCGCGCCTGC, the remaining target (mRNA or protein) (fraction of control) stood at 0.59.

TAGAGGATCTTGAGCGTC: the remaining target (mRNA or protein) (fraction of control) was ≥ 1.

CCATCCGGTTCTCGTTGT displayed a remaining target (mRNA or protein) (fraction of control) of 0.81.

Regarding GATGGTGTCCTTCACGGC, the remaining target (mRNA or protein) (fraction of control) was ≥ 1.

Sequence GCAGGTAGCCCAAGGTGG had a remaining target (mRNA or protein) (fraction of control) of 0.8.

The sequence ATCCGCTTGGACTCCTTC showed a remaining target (mRNA or protein) (fraction of control) of 0.83.

Consider GATGGACTCCAGAGTCAT, for which the remaining target (mRNA or protein) (fraction of control) is ≥ 1.

With GCAGCAGCAGCTTGAGCT, the remaining target (mRNA or protein) (fraction of control) is ≥ 1.

The sequence CTCCGCTCCGACCGCTGG yielded a remaining target (mRNA or protein) (fraction of control) of 0.44.

Consider CGGATCATGGCCTGCATG, for which the remaining target (mRNA or protein) (fraction of control) was 0.99.

Regarding CGACTCCACCAGGACTTG, the remaining target (mRNA or protein) (fraction of control) stood at 0.6.

As for TGTTCTGGTAGACGAGCT, the remaining target (mRNA or protein) (fraction of control) is ≥ 1.

CGTTGATCCGCTTGGACT: the remaining target (mRNA or protein) (fraction of control) was ≥ 1.

With CCAGGTCGAAAGGGTACT, the remaining target (mRNA or protein) (fraction of control) is ≥ 1.

ATCTTGTCCTCCAGCAGG showed a remaining target (mRNA or protein) (fraction of control) of 0.96.

Regarding GCAGGTCCTTCTTGTTGA, the remaining target (mRNA or protein) (fraction of control) is 0.94.

CAGGGTCTTGATGGCACT: the remaining target (mRNA or protein) (fraction of control) is ≥ 1.

GATCCACTTCCTCCGCTC displayed a remaining target (mRNA or protein) (fraction of control) of 0.41.

With GCGAGTACAGGATCTTGT, the remaining target (mRNA or protein) (fraction of control) was 0.83.

Regarding CGCATCTGCTTGATGAAC, the remaining target (mRNA or protein) (fraction of control) was ≥ 1.

As to CTCGATCTCGGCGTTGAT, the remaining target (mRNA or protein) (fraction of control) was ≥ 1.

As to GCCCGTGCCGAGCAGCAG, the remaining target (mRNA or protein) (fraction of control) is ≥ 1.

On to TGAGGAAGAGGATGACGG, for which the remaining target (mRNA or protein) (fraction of control) was ≥ 1.

For the sequence CACGTGAAGTGTGAGTAG, the remaining target (mRNA or protein) (fraction of control) is ≥ 1.

Sequence CTCATCGCTCAGGCAACA showed a remaining target (mRNA or protein) (fraction of control) of 0.39.

Sequence ACTGACGTACTGATGCTC showed a remaining target (mRNA or protein) (fraction of control) of 0.64.

Take TGTCACGTTCTCAAAGCA: the remaining target (mRNA or protein) (fraction of control) is ≥ 1.

Take CTGGATGCCCGGGTCCTC: the remaining target (mRNA or protein) (fraction of control) was ≥ 1.

Take CGAGAAACATGATGGATG: the remaining target (mRNA or protein) (fraction of control) is ≥ 1.

As to TCGATGATGCCGGTGGTG, the remaining target (mRNA or protein) (fraction of control) was ≥ 1.

With GTAGGTGATGATGGTCCG, the remaining target (mRNA or protein) (fraction of control) is ≥ 1.

For ATCTGCTTGATGAACGTG, the remaining target (mRNA or protein) (fraction of control) was ≥ 1.

A further data set concerns the target TRADD. The following applies: ASO.
TAGGCCAAGTGGAGTTTC displayed a remaining target (mRNA or protein) (fraction of control) of 0.58.

Sequence GCGTAGGCATCCGACAGG displayed a remaining target (mRNA or protein) (fraction of control) of 0.97.

GGTGGCGGCGGCGGCGGC: the remaining target (mRNA or protein) (fraction of control) came out at 0.99.

For the sequence AGCGGCACCGAGTGCTGG, the remaining target (mRNA or protein) (fraction of control) was ≥ 1.

Take TGCGGGTCGCTGCGGTGG: the remaining target (mRNA or protein) (fraction of control) is 0.69.

Consider AGATTTCGCAGCGCATCC, for which the remaining target (mRNA or protein) (fraction of control) was ≥ 1.

CAGGCCGCCATTGGGATC: the remaining target (mRNA or protein) (fraction of control) is ≥ 1.

For the sequence TGCGGTGGATCTTCAGCA, the remaining target (mRNA or protein) (fraction of control) was ≥ 1.

In the case of GGATCTTCAGCATCTGCA, the remaining target (mRNA or protein) (fraction of control) was ≥ 1.

Regarding AGCTCCAGTTGCAGCGGC, the remaining target (mRNA or protein) (fraction of control) is 0.82.

The sequence GCCCGCAGAATCGCAGCT displayed a remaining target (mRNA or protein) (fraction of control) of 0.75.
